Where “and” joins values, the source holds several entries; their conditions need not be identical. Identical values can stand only once.
What was measured:
[1] = Total radioactivity PK in plasma; format: in vivo, human
Experimental: (§1) Venous blood samples (18 mL/time point) were collected by either direct venipuncture or from an indwelling cannula inserted into a vein of the forearm into tubes containing potassium ethylene diamine tetra acetic acid (K2‐EDTA) at the following times for metabolite characterization, total radioactivity and parent drug analysis: Pre‐dose, 0.5, 1, 1.5, 2, 3, 4, 6, 8, 12, 24, 48, 72, 96, 120 and 144 h post‐dose. Urine samples were collected into pre‐weighed, uniquely labeled containers pre‐dose (before drug administration) and at the following intervals: 0–4, 4–8, 8–24, 24–48, 48–72, 72–96, 96–120 and 120–144 h post‐dose. Feces samples were collected quantitatively into uniquely labeled, polypropylene containers pre‐dose (before drug administration) and individually until 144 h post‐dose. Urine and feces samples were frozen at −20°C and blood samples at −70°C.
(§2) Analysis of total radioactivity data in plasma, blood, feces, and urine was performed by Covance Laboratories Inc. All sample combustions were performed in a Model 307 Sample Oxidizer (Packard Instrument Company) and the resulting ^14CO2 was trapped in a mixture of Perma Fluor™ (Perkin Elmer) and Carbo Sorb® (Perkin Elmer). Oxidation efficiency was evaluated on each day of sample combustion by analyzing a commercial radiolabeled standard both directly in a scintillation cocktail and by oxidation. […] EcoLite™(+) scintillation cocktail was used for samples analyzed directly. All samples were analyzed for radioactivity in Model 2900TR or 2910TR liquid scintillation counters (Packard Instrument Company) for at least 5 min or 100 000 counts. Each sample was homogenized or mixed before radioanalysis (unless the entire sample was used for analysis). All samples were analyzed in duplicate or triplicate, as applicable, if sample size allowed. If results from sample replicates (calculated as ^14C disintegrations per minute (dpm)/g sample) differed by more than 10% from the mean value and sample aliquots had radioactivity greater than 200 dpm, the sample was re‐homogenized or remixed and reanalyzed (if the sample size permitted).
(§3) Blood samples were mixed and duplicate aliquots of each (approximately 0.4 g) were combusted and analyzed by liquid scintillation […]. Plasma and urine samples were separately mixed and duplicate weighed aliquots of each (approximately 0.4 g for plasma and 0.2 g for urine) were analyzed directly by LSC. Urine volumes provided by the Covance clinical research unit were entered as a weight assuming a specific gravity of 1 g/mL. Feces samples were analyzed individually (samples were not combined by interval) and the weight of each individual sample was recorded. A weighed amount of methanol:water (20:80, v:v; approximately 2 to 3 times the sample weight, such that the homogenate weight:sample weight ratio was approximately 3 to 4) was added and the sample was mixed and homogenized using a probe type homogenizer. Triplicate‐weighed aliquots (approximately 0.2 g) were combusted and analyzed by LSC. The empty treatment vial from each subject was analyzed by adding a weighed amount of methanol to each vial and analyzing duplicate weighed aliquots (approximately 0.5 g) of each extract by LSC. Residual radioactivity recovered from each treatment vial was subtracted from the dose administered to the appropriate subject.
The total radioactivity in blood and plasma was determined by LSC. Nominal sampling time points were used for deriving total radioactivity blood and plasma PK data. […]

[2] = Total radioactivity PK in whole blood; format: in vivo, human
Experimental: as §1, §2, §3
The total radioactivity in blood and plasma was determined by LSC. Nominal sampling time points were used for deriving total radioactivity blood and plasma PK data. PK parameters (maximum concentration (C max), time to maximum concentration (T max), terminal half‐life(t 1/2) time to last measurable concentration (T last), area under the curve to the last measurable time point (AUClast), area under the curve extrapolated to infinity (AUCinf)) describing blood and plasma total radioactivity were determined using non‐compartmental methods via WinNonlin® Professional (Version 6.3, Pharsight). […]

[3] = design: method as in data on file; settings: in vitro study; ref data on file; cited from earlier work
[4] = system: CYP3A4; design: method as in earlier work; settings: cited from earlier work
[5] = system: CYP2C19; design: method as in earlier work; settings: cited from earlier work
[6] = system: CYP2D6; design: method as in earlier work; settings: cited from earlier work
[7] = whole blood, Median (Minimum–Maximum)

## COC(=O)N[C@@H](C)CNc1nccc(-c2cn(C(C)C)nc2-c2cc(Cl)cc(NS(C)(=O)=O)c2F)n1 [encorafenib]
[1]; Mean (SD)
  Cmax, total radioactivity: 2170 (107) ngEq/mL
  T1/2, total radioactivity: 5.1 h and 5.1 (1.30) h
[1]; Median (Minimum–Maximum)
  Cmax, total radioactivity: 2190 (2020–2330) ngEq/mL
  T1/2, total radioactivity: 4.5 (7.1–4.3) h
  Tmax, total radioactivity: 1.3 h
[2]; mean
  [blood]:[plasma] AUC ratio for total radioactivity: 0.58
[2]; mean (SD)
  [blood]/[plasma] total radioactivity, 1 to 24 h post-dose: 0.59 [0.02]
[2]; whole blood, Mean (SD)
  AUCinf, total radioactivity: 8950 (1310) ngEq*h/mL
  Cmax, total radioactivity: 1330 (103) ngEq/mL
  T1/2, total radioactivity: 4.8 h and 4.8 (0.48) h
[2]; [7]
  AUCinf, total radioactivity: 8760 (7670–10 600) ngEq*h/mL
  Cmax, total radioactivity: 1320 (1230–1460) ngEq/mL
  T1/2, total radioactivity: 4.6 (4.5–5.5) h
  Tmax, total radioactivity: 1.0 h
[3]
  [blood]/[plasma] in vitro: 0.75 ± 0.21
[4]
  Contribution of CYP3A4 to metabolism: 83%
[5]
  Contribution of CYP2C19 to metabolism: 16%
[6]
  Contribution of CYP2D6 to metabolism: 1%
